Experimental data as given in PubChem BioAssay AID652266 (Broad Institute, 2013).
Calls of active or inactive are those of the source. The rule behind the calls is not given here.

These compounds were tested against Protein disulfide-isomerase A3 (Homo sapiens) (UniProt P30101) (assay: ERp57 (PDIA3) enzyme inhibition – biochemical, dry powder samples, plate reader, selectivity assay, dose response (AID 652266)). Details: purified ERp57 enzyme.
Protein disulfide-isomerase A3 (Homo sapiens), sequence (P30101 whole entry, looked up): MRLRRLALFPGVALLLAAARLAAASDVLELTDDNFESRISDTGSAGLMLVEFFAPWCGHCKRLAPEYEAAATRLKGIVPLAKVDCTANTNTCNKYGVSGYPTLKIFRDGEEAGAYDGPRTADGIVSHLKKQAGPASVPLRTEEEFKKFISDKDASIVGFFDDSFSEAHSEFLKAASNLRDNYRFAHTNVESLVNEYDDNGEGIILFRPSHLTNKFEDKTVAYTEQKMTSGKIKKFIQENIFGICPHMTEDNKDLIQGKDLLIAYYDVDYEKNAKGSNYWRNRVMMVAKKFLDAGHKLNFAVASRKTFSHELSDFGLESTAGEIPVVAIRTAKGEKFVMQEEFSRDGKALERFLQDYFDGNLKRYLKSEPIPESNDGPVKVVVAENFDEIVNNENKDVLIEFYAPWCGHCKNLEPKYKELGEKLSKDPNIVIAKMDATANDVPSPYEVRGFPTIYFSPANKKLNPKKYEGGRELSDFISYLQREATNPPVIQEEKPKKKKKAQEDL

| Compound | AC50 |
| --- | --- |
| CCOC(=O)C1(CCOc2ccccc2)CCN(Cc2ccc(O)c(Cl)c2)CC1 | > 30 µM (inactive) |
| CCN(C)C(=O)C1(CCOc2ccccc2)CCN(Cc2ccc(O)c(Cl)c2)CC1 | > 30 µM (inactive) |
| O=C(Nc1ccccc1)C1(CCOc2ccccc2)CCN(Cc2ccc(O)c(Cl)c2)CC1 | > 30 µM (inactive) |
| C/C1=C\C[C@H](OC(=O)c2ccc(O)cc2)/C(C)=C/[C@@H](O)C(C)(C)CCC1 | > 30 µM (inactive) |
| CCOC(=O)C1(CCOc2ccccc2)CCN(Cc2ccc(OC)c(Cl)c2)CC1 | > 30 µM (inactive) |
| CCOC(=O)c1c(CN2CCN(CCO)CC2)n(-c2ccccc2)c2cc(Br)c(O)cc12 | > 30 µM (inactive) |
| CC(C)OC(=O)C1(CCOc2ccccc2)CCN(Cc2ccc(O)c(Cl)c2)CC1 | > 30 µM (inactive) |
| CCOC(=O)C1(CCOc2ccccc2)CCN(C(=O)c2ccc(O)c(Cl)c2)CC1 | > 30 µM (inactive) |

The next lines start with the values.

| AC50 | Compound |
| --- | --- |
| > 30 µM (inactive) | C/C1=C\[C@@H](O)C(C)(C)CCCC2(C)OC2C[C@@H]1OC(=O)c1ccc(O)cc1 (some centres not stated) |
| > 30 µM (inactive) | CC(C)(C)OC(=O)C1(CCOc2ccccc2)CCN(Cc2ccc(O)c(Cl)c2)CC1 |
| > 30 µM (inactive) | CCOC(=O)C1(CCOc2ccccc2)CCN(Cc2ccc(O)cc2)CC1 |
| > 30 µM (inactive) | O=C(NC1CCCC1)C1(CCOc2ccccc2)CCN(Cc2ccc(O)c(Cl)c2)CC1 |
